This is an account of results in PMC9911168, “Cytotoxic and pro-apoptotic effects of botanical drugs derived from the indigenous cultivated medicinal plant Paris polyphylla var. yunnanensis” (Frontiers in Pharmacology, 2023).

Common to all, as to assay type: cell-based, human
Test [1] concerns A549 cells. The test is described as follows: Mitochondrial membrane potential (JC-10), A549. Conditions: A549, 2 μM, 24 h. The procedure: (§1) The probe 5,6-dichloro-1,1′,3,3′- tetraethyl-imidacarbocyanine iodide (JC-10) was used as a measure of mitochondrial membrane potential ([Hirose et al., 1974]; [Chaudhari et al., 2008]). The effects of each of the six isolated saponins on mitochondrial membrane potential were determined using a JC-10 assay kit (×200, 10 μL/tube, five tubes), which was purchased from Beijing Solarbio Science & Technology Co., Ltd. (Beijing, China). Cells were cultured in a confocal dish with this method. After 12–24 h of inoculation and culture at 37°C, the purified saponins were added at the indicated concentrations. The cells were incubated at 37°C in a humidified atmosphere with 5% (v/v) CO2 for 24 h. The culture medium was removed, and the confocal dishes were washed twice with 1 mL PBS, followed by 0.5 mL incubation buffer containing 2.5 μL JC-10 (×200) at 37°C for 20 min in the dark. After incubation, the supernatant was removed, and the cells were washed twice with 1 mL JC-10 buffer and PBS. […] The wavelengths for excitation were 490 nm (green fluorescence) and 525 nm (red fluorescence). The wavelengths for emission were in the range of 495–565 nm (monomers for JC-10) and 550–620 nm (polymer for JC-10).

Test [2] relates to SMMC-7721 cells. The experiment in a line: Mitochondrial membrane potential (JC-10), SMMC-7721. The following applies: SMMC-7721, 2 μM, 24 h. As for the experimental part:
as §1

Test [3] has as its system HepG2 cells. The experiment in a line: Mitochondrial membrane potential (JC-10), HepG2. The following applies: HepG2, 2 μM, 24 h. The procedure:
as §1

Test [4] deals with SMMC-7721. The experiment in a line: MTS cell viability assay, SMMC-7721. Conditions: read-out: IC50 (±SD) SMMC-7721. As for the experimental part: (§2) The effects of the extracts and isolated saponins on cell growth were evaluated by the MTS assay (3-(4,5-dimethylthiazol-2-yl)-5(3-carboxymethoxyphenyl)-2-(4-sulfopheny)-2H-tetrazolium; Promega, Madison, WI, United States) on human tumor cell lines ([Mosmann, 1983]; [Cory et al., 1991]; [Malich et al., 1997]). In a test experiment of cell inhibition, the cell inhibition effects of six crude extracts (100 μg/mL) and six isolated saponins (40 μM) were roughly measured to ascertain whether to measure the IC50 value by MTS assay.
(§3) Each well of a 96-well plate (Multiskan Fc, Therm) was seeded with 100 μL cells at a density of 3,000–5,000 cells per well, with the cell suspension containing 10% (v/v) fetal bovine serum (DMEM or RMPI1640, Biological Industries, Kibbutz Beit-Haemek, Israel). After 12–24 h of inoculation and culture at 37°C, the extracts or saponins were added at the indicated concentrations after being dissolved in dimethyl sulfoxide (DMSO, Biological Industries, Kibbutz Beit-Haemek, Israel) in a final volume of 200 μL per well, each in triplicate. The six crude extracts were added at concentrations of 100, 20, 4, 0.8, and 0.16 μg/mL; the six isolated saponins were added at concentrations of 10, 5, 2.5, 1.25, 0.625, and 0.3125 μM. After culture for 48 h at 37°C, 20 μL of MTS solution and 100 μL of DMEM were added to each well; three blank wells were set aside with 20 μL MTS solution and 100 μL DMEM. After an incubation for another 2–4 h, the absorbance at 492 nm was measured. Cisplatin and Paclitaxel (MeilunBio) were used as a positive control in each experiment. The cell growth curve was drawn with the concentration as the abscissa and the cell survival rate as the ordinate. The IC50 value of each saponin was calculated by the two-point method ([Reed and Muench, 1938]).
In general terms: Formazan colour is commonly taken as a measure of viable cells.

In test [5] the test system is HepG2. The test is described as follows: MTS cell viability assay, HepG2. Conditions: read-out: IC50 (±SD) HepG2. The procedure:
as §2, §3

Test [6] relates to SK-HEP-1. The test is described as follows: MTS cell viability assay, SK-HEP-1. Conditions: read-out: IC50 (±SD) SK-HEP-1. As for the experimental part: as §2, §3
For test [7], the system named is A549. The test is described as follows: MTS cell viability assay, A549. The following applies: read-out: IC50 (±SD) A549. The procedure: as §2, §3
Test [8] has as its system LO2. The test is described as follows: MTS cell viability assay, normal liver cell LO2. As for the experimental part: (§4) Three human liver cancer cell lines (SMMC-7721, HepG2, and SK-HEP-1) and the non-small-cell lung cancer (NSCLC) cell line A549 were obtained from ATCC (Manassas, VA, United States). Normal human cell lines (liver cell line LO2 and lung cell line BEAS-2B) were obtained from ATCC (Manassas, VA, United States). Cells were cultured in RMPI-1640 or DMEM medium (Biological Industries, Kibbutz Beit-Haemek, Israel) supplemented with 10% (v/v) fetal bovine serum (Biological Industries) at 37°C in a humidified atmosphere with 5% (v/v) CO2.
as §2, §3

The test system of test [9] is BEAS-2B. The experiment in a line: MTS cell viability assay, normal lung cell BEAS-2B. Conditions: read-out: IC50 (±SD) BEAS-2B. As for the experimental part: as §4, §2, §3
In test [10] the test system is A549 cells. The experiment in a line: Cell cycle analysis (PI staining, flow cytometry), A549. Conditions: A549, 24 h; saponins 1 and 5 at 0.5 μM, other four at 1 μM. As for the experimental part: (§5) Cell cycle distribution was determined by propidium iodide (PI, BD, Pharmingen) staining ([Kong et al., 2016]; [Wei et al., 2021]). Briefly, three cancer cell lines were cultured in six-well plates at a density of 3 × 10^5 cells per well for 24 h before treatment with each of the six isolated saponins at the indicated concentrations for 24 h. The cells were collected, centrifuged, and washed twice with ice-cold PBS. Cells were fixed in 70% (v/v) ice-cold ethanol at 4°C overnight and washed again in PBS twice. The cells were incubated with 100 μL RNase A at 37°C for 30 min in the dark, after which 400 μL PI was added to the cells with RNase A in the dark at 4°C for 15 min. The cell cycle stage was analyzed by flow cytometry (BD, FACSCelesta, United States) with FLOWJO software (FlowJo, Ashland, OR, United States).
(In general: A flow cytometer gives signals particle by particle.)

The test system of test [11] is SMMC-7721 cells. The experiment in a line: Cell cycle analysis (PI staining, flow cytometry), SMMC-7721. Conditions: SMMC-7721, 24 h, 1 μM. As for the experimental part: as §5
The subject of test [12] is HepG2 cells. The experiment in a line: Cell cycle analysis (PI staining, flow cytometry), HepG2. The following applies: HepG2, 24 h, 1 μM. The procedure:
as §5

Test [13] concerns SMMC-7721 cells. The test is described as follows: Apoptosis by annexin V-FITC/PI staining, SMMC-7721. The following applies: SMMC-7721, saponins 5 μM, Figure 7. As for the experimental part: (§6) Double staining with annexin V-fluorescein isothiocyanate (FITC) and PI was used to determine the effects of the six saponins on cell apoptosis by flow cytometry ([Homburg et al., 1995]; [Vermes et al., 1995]; [Casciola-Rosen et al., 1996]). The effects of the six isolated saponins on apoptosis were determined using an annexin V-FITC apoptosis kit (BD, Pharmingen); the chemotherapy drug doxorubicin (DOX, Beyotime Institute of Biotechnology, Shanghai, China) was used as the positive control. Cells were cultured in six-well plates at a density of 3 × 10^5 cells per well for 24 h before being treated with each of the six isolated saponins at the indicated concentrations for 24 h. The cells were collected, centrifuged, and washed twice with ice-cold phosphate-buffered saline (PBS). The cells were stained with annexin V-FITC and PI for 15 min in the dark at room temperature before analysis by flow cytometry (BD, FACSCelesta, America). Annexin V-FITC^+ and PI^+ (Q2) were considered late-stage apoptotic cells, while annexin V-FITC^+ and PI^− (Q3) cells were considered early-stage apoptotic cells. Annexin V-FITC^– and PI^+ (Q1) were necrotic or mechanically damaged cells, and annexin V-FITC^– and PI^− (Q4) cells were healthy living cells.

Test [14] relates to A549 cells. The test is described as follows: Apoptosis by annexin V-FITC/PI staining, A549. Conditions: A549, saponins 5 μM, Figure 7. As for the experimental part:
as §6

In test [15] the test system is HepG2 cells. The experiment in a line: Apoptosis by annexin V-FITC/PI staining, HepG2. The following applies: HepG2, saponins 5 μM, Figure 7. As for the experimental part:
as §6

Read-outs that look alike come from different tables or passages of the source.

For `N#CC(C#N)=NNc1cccc(Cl)c1` [CCCP, carbonyl cyanide 3-chlorophenylhydrazone], the “JC-10 green fluorescence (drop in mitochondrial membrane potential)” value in [1], in test [2] and in [3] was “strong green fluorescence” throughout.

One may read the IC50 as the concentration at which inhibition is half-maximal. On to `CC1CCC2(OC1)OC1CC3C4CC=C5CC(OC6OC(CO)C(OC7OC(C)C(OC8OC(C)C(O)C(O)C8O)C(O)C7O)C(O)C6OC6OC(C)C(O)C(O)C6O)CCC5(C)C4CCC3(C)C1C2C` [saponin 6, diosgenin-3-O-α-L-rhamnopyranosyl-(1→2)-[α-L-rhamnopyranosyl-(1→4)-α-L-rhamnopyranosyl-(1→4)]-β-D-glucopyranoside], for which the half-maximal inhibitory concentration (IC50) in [4] (Homo sapiens, SMMC-7721, 48 h) was 450 ± 10 nM; in [5] (Homo sapiens, HepG2, 48 h), 2590 ± 30 nM; in [6] (Homo sapiens, SK-HEP1, 48 h), 1300 ± 60 nM; in test [7] (Homo sapiens, A549, 48 h), 240 ± 10 nM; in [8] (Homo sapiens, L02, read-out: IC50 (±SD) LO2) it was 370 ± 10 nM; in [9] (Homo sapiens, BEAS-2B), 730 ± 30 nM. The results for the “cell cycle phase with increased proportion of cells compared to DMSO control” value in test [10] and in test [11] were “G2/M phase” and “cell cycle arrest at the G2/M phase”, respectively. The entries for the “increase of proportion of cells in the G2/M phase compared to DMSO control” value in test [11] and in [12] were 27.10% and 25.8%, respectively. In test [13], the “apoptosis rate (induction of apoptosis, in words)” value was “substantial induction of apoptosis”.

Take “pennogenin-3-O-α-L-rhamnopyranosyl-(1→2)-[α-L-rhamnopyranosyl-(1→4)]-β-D-glucopyranoside [saponin 1]”: the IC50 in [4] (liver cancer cell line SMMC-7721, MTS, 48 h) stood at 760 ± 30 nM; in test [5] (liver cancer cell line HepG2, MTS, 48 h), 1780 ± 10 nM; in test [6] (liver cancer cell line SK-HEP-1, MTS, 48 h), 900 ± 40 nM; in [7] (NSCLC cell line A549, MTS, 48 h) it was 980 ± 10 nM; in [8] (normal liver cell LO2, MTS, read-out: IC50 (±SD) LO2), 1790 ± 100 nM; in test [9] (normal lung cell BEAS-2B, MTS), 1190 ± 10 nM. For the same compound, in test [10], the “cell cycle phase with increased proportion of cells compared to DMSO control” value is reported as “G2/M phase”. In test [12], the “increase of proportion of cells in S phase compared to DMSO control” value is listed as 23.7%. For the same compound, the “apoptosis rate (induction of apoptosis, in words)” value in test [14] was “stronger apoptosis than the positive control DOX”; in [14] (listed as Saponin 1) it was “most effective in inducing apoptosis”; in test [13], “stronger apoptosis than the positive control DOX”; in [13] (listed as Saponin 1), “most effective in inducing apoptosis”; in [15] it was “next and stronger apoptosis than the positive control DOX”; in test [15] (listed as Saponin 1), “also effective”.
